The molecules below were run against WDR5 (Homo sapiens (Human), UniProt P61964) (assay: Surface Plasmon Resonance (SPR) assay, KD and residence time). Conditions: surface plasmon resonance (SPR) assay; read-out: WDR5 binding affinity (KD).
Format: binding
Experimental: (i) Surface Plasmon Resonance (SPR) Assay
The lifetime of a drug on its target is determined by two rate constants: the association rate constant (kon) and the dissociation rate constant (koff). In principle, the lifetime of the binary drug—target complex is thus extended by a rapid rate of drug binding and/or a slow rate of drug—target complex dissociation. The in vivo lifetime of a drug-target complex is most critically dependent on the value of the koff [Nat. Rev. Drug Discov. […] Drug Discov. […] Drug-target residence time is defined as the reciprocal of koff (τ=1/koff), making the residence time a parameter that is easily measured by routine in vitro assay methods.
`CC1CN(c2cc(F)c(-c3ccc(N4CCOCC4)cc3)cc2NC(=O)c2nn(C)c3ccccc23)CCN1C` (stereo in doubt) [Example 117, N-[4-fluoro-5-(4-morpholin-4-ylphenyl)-2-[(3R)-3,4-dimethylpiperazin-1-yl]phenyl]-1-methylindazole-3-carboxamide] showed a Kd of 42.8 nM. For `CC1CN(c2cc(F)c(-c3cnc(N4CCOCC4)nc3)cc2NC(=O)c2cnn(C)c2)CCN1C` (stereo in doubt) [Example 121, N-[4-fluoro-5-(2-morpholin-4-ylpyrimidin-5-yl)-2-[(3R)-3,4-dimethylpiperazin-1-yl]phenyl]-1-methylpyrazole-4-carboxamide], the Kd was 33.4 nM. Molecule `CC1CN(c2cc(F)c(-c3ccc(N4CCOCC4)cc3)cc2NC(=O)c2cnn(C)c2)CCN1C` (stereo in doubt) [Example 122, N-[4-fluoro-5-(4-morpholin-4-ylphenyl)-2-[(3R)-3,4-dimethylpiperazin-1-yl]phenyl]-1-methylpyrazole-4-carboxamide] has a Kd of 70.2 nM. For `Cc1csc(C(=O)Nc2cc(-c3cnc(N4CCOCC4)nc3)c(F)cc2N2CCN(C)C(C)C2)n1` (stereo in doubt) [Example 181, N-[4-fluoro-5-(2-morpholin-4-ylpyrimidin-5-yl)-2-[(3R)-3,4-dimethylpiperazin-1-yl]phenyl]-4-methyl-1,3-thiazole-2-carboxamide], the Kd was > 200 nM. For `CC1CN(c2cc(F)c(-c3cnc(N4CCOCC4)nc3)cc2NC(=O)c2csc(CN(C)C)n2)CCN1C` (stereo in doubt) [Example 182, 2-[(dimethylamino)methyl]-N-[4-fluoro-5-(2-morpholin-4-ylpyrimidin-5-yl)-2-[(3R)-3,4-dimethylpiperazin-1-yl]phenyl]-1,3-thiazole-4-carboxamide], the Kd was > 200 nM. Molecule `CC1CN(c2cc(F)c(-c3cnc(N4CCOCC4)nc3)cc2NC(=O)c2n[nH]cc2Cl)CCN1C` (stereo in doubt) [Example 183, 4-chloro-N-[4-fluoro-5-(2-morpholin-4-ylpyrimidin-5-yl)-2-[(3R)-3,4-dimethylpiperazin-1-yl]phenyl]-1H-pyrazole-3-carboxamide] has a Kd of 113 nM. For `CC1CN(c2cc(F)c(-c3cnc(N4CCOCC4)nc3)cc2NC(=O)c2ccn(C)n2)CCN1C` (stereo in doubt) [Example 192, N-[4-fluoro-5-(2-morpholin-4-ylpyrimidin-5-yl)-2-[(3R)-3,4-dimethylpiperazin-1-yl]phenyl]-1-methylpyrazole-3-carboxamide], the Kd was 1260 nM. Molecule `CC1CN(c2cc(F)c(-c3cnc(N4CCOCC4)nc3)cc2NC(=O)c2cc[nH]n2)CCN1C` (stereo in doubt) [Example 193, N-[4-fluoro-5-(2-morpholin-4-ylpyrimidin-5-yl)-2-[(3R)-3,4-dimethylpiperazin-1-yl]phenyl]-1H-pyrazole-3-carboxamide] has a Kd of 592 nM. In the case of `Cc1nc(C(=O)Nc2cc(-c3cnc(N4CCOCC4)nc3)c(F)cc2N2CCN(C)C(C)C2)cs1` (stereo in doubt) [Example 194, N-[4-fluoro-5-(2-morpholin-4-ylpyrimidin-5-yl)-2-[(3R)-3,4-dimethylpiperazin-1-yl]phenyl]-2-methyl-1,3-thiazole-4-carboxamide], the Kd is reported as 113 nM. In the case of `Cc1ncc(C(=O)Nc2cc(-c3cnc(N4CCOCC4)nc3)c(F)cc2N2CCN(C)C(C)C2)s1` (stereo in doubt) [Example 195, N-[4-fluoro-5-(2-morpholin-4-ylpyrimidin-5-yl)-2-[(3R)-3,4-dimethylpiperazin-1-yl]phenyl]-2-methyl-1,3-thiazole-5-carboxamide], the Kd is reported as 106 nM. Molecule `CC(=O)Nc1ccc(-c2cc(NC(=O)c3c[nH]c(=O)cc3C(F)(F)F)c(N3CCN(C)C(C)C3)cc2F)cn1` (stereo in doubt) [Example 196, N-[5-(6-acetamidopyridin-3-yl)-4-fluoro-2-[(3R)-3,4-dimethylpiperazin-1-yl]phenyl]-6-oxo-4-(trifluoromethyl)-1H-pyridine-3-carboxamide] has a Kd of 0.24 nM. Work on `CC1CN(c2cc(F)c(-c3ccc(OCC4CC4)nc3)cc2NC(=O)c2c[nH]c(=O)cc2C(F)(F)F)CCN1C` (stereo in doubt) [Example 198, N-[5-[6-(cyclopropylmethoxy)pyridin-3-yl]-4-fluoro-2-[(3R)-3,4-dimethylpiperazin-1-yl]phenyl]-6-oxo-4-(trifluoromethyl)-1H-pyridine-3-carboxamide] yielded a Kd of 0.666 nM. Work on `Cc1nc(C(F)(F)F)c(C(=O)Nc2cc(-c3cnc(N4CCOCC4)nc3)c(F)cc2N2CCN(C)C(C)C2)s1` (stereo in doubt) [Example 199, N-[4-fluoro-5-(2-morpholin-4-ylpyrimidin-5-yl)-2-[(3R)-3,4-dimethylpiperazin-1-yl]phenyl]-2-methyl-4-(trifluoromethyl)-1,3-thiazole-5-carboxamide] yielded a Kd of 23.4 nM. For `CC1CN(c2cc(F)c(-c3cnc(N4CCOCC4)nc3)cc2NC(=O)c2cc(Cl)cc(Cl)c2)CCN1C` (stereo in doubt) [Example 200, 3,5-dichloro-N-[4-fluoro-5-(2-morpholin-4-ylpyrimidin-5-yl)-2-[(3R)-3,4-dimethylpiperazin-1-yl]phenyl]benzamide], the Kd was 9.7 nM. `CC1CN(c2cc(F)c(-c3cccc(CN(C)C4COC4)c3)cc2NC(=O)c2c[nH]c(=O)cc2C(F)(F)F)CCN1C` (stereo in doubt) [Example 214, N-[4-fluoro-5-[3-[[methyl(oxetan-3-yl)amino]methyl]phenyl]-2-[(3R)-3,4-dimethylpiperazin-1-yl]phenyl]-6-oxo-4-(trifluoromethyl)-1H-pyridine-3-carboxamide] gave a Kd of 2.15 nM. In the case of `CC(=O)Nc1ccc(-c2cc(NC(=O)c3cn(C)c(=O)cc3C(F)F)c(N3CCN(C)C(C)C3)cc2F)cn1` (stereo in doubt) [Example 217, N-[5-(6-acetamidopyridin-3-yl)-4-fluoro-2-[(3R)-3,4-dimethylpiperazin-1-yl]phenyl]-4-(difluoromethyl)-1-methyl-6-oxopyridine-3-carboxamide], the Kd is reported as 4.32 nM. In the case of `CC1CN(c2cc(F)c(-c3cnc(C#N)nc3)cc2NC(=O)c2cn(C)c(=O)cc2C(F)F)CCN1C` (stereo in doubt) [Example 218, N-[5-(2-cyanopyrimidin-5-yl)-4-fluoro-2-[(3R)-3,4-dimethylpiperazin-1-yl]phenyl]-4-(difluoromethyl)-1-methyl-6-oxopyridine-3-carboxamide], the Kd is reported as 3.18 nM. `CC1CN(c2cc(F)c(-c3ccc(N(C)C)nc3)cc2NC(=O)c2c[nH]c(=O)cc2C(F)(F)F)CCN1C` (stereo in doubt) [Example 219, N-[5-[6-(dimethylamino)pyridin-3-yl]-4-fluoro-2-[(3R)-3,4-dimethylpiperazin-1-yl]phenyl]-6-oxo-4-(trifluoromethyl)-1H-pyridine-3-carboxamide] showed a Kd of 1.4 nM. With `CC1CN(c2cc(F)c(-c3cnc(N4CCOCC4)nc3)cc2NC(=O)c2ccc(F)cc2Cl)CCN1C` (stereo in doubt) [Example 230, 2-chloro-4-fluoro-N-[4-fluoro-5-(2-morpholin-4-ylpyrimidin-5-yl)-2-[(3R)-3,4-dimethylpiperazin-1-yl]phenyl]benzamide] the Kd was 8.95 nM. Work on `CC1CN(c2cc(F)c(-c3ccc(N4CCOCC4)nc3)cc2NC(=O)c2c[nH]c(=O)cc2C(F)(F)F)CCN1C` (stereo in doubt) [Example 239, N-[4-fluoro-5-(6-morpholin-4-ylpyridin-3-yl)-2-[(3R)-3,4-dimethylpiperazin-1-yl]phenyl]-6-oxo-4-(trifluoromethyl)-1H-pyridine-3-carboxamide] yielded a Kd of 1.07 nM. For `CC(C)Oc1ncc(-c2cc(NC(=O)c3c[nH]c(=O)cc3C(F)(F)F)c(N3CCN(C)C(C)C3)cc2F)cn1` (stereo in doubt) [Example 240, N-[4-fluoro-5-(2-propan-2-yloxypyrimidin-5-yl)-2-[(3R)-3,4-dimethylpiperazin-1-yl]phenyl]-6-oxo-4-(trifluoromethyl)-1H-pyridine-3-carboxamide], the Kd was 2.23 nM. For `CC1CN(c2cc(F)c(-c3cnc4c(c3)OCCO4)cc2NC(=O)c2c[nH]c(=O)cc2C(F)(F)F)CCN1C` (stereo in doubt) [Example 241, N-[5-(2,3-dihydro-[1,4]dioxino[2,3-b]pyridin-7-yl)-4-fluoro-2-[(3R)-3,4-dimethylpiperazin-1-yl]phenyl]-6-oxo-4-(trifluoromethyl)-1H-pyridine-3-carboxamide], the Kd was 2.82 nM. Molecule `CC1CN(c2cc(F)c(-c3cnc(N4CCOCC4)nc3)cc2NC(=O)c2cn(C)nc2C(F)(F)F)CCN1C` (stereo in doubt) [Example 284, N-[4-fluoro-5-(2-morpholin-4-ylpyrimidin-5-yl)-2-[(3R)-3,4-dimethylpiperazin-1-yl]phenyl]-1-methyl-3-(trifluoromethyl)pyrazole-4-carboxamide] has a Kd of 8.13 nM. Molecule `CC1CN(c2cc(F)c(-c3cnc(N4CCOCC4)nc3)cc2NC(=O)c2ccc(F)cc2C(F)(F)F)CCN1C` (stereo in doubt) [Example 298, 4-fluoro-N-[4-fluoro-5-(2-morpholin-4-ylpyrimidin-5-yl)-2-[(3R)-3,4-dimethylpiperazin-1-yl]phenyl]-2-(trifluoromethyl)benzamide] has a Kd of 4.22 nM. In the case of `CC1CN(c2cc(F)c(-c3cnc(N4CCOCC4)nc3)cc2NC(=O)c2ccc(F)cc2C(F)(F)F)CCN1C` (stereo in doubt) [Example 299, 4-fluoro-N-[4-fluoro-5-(2-morpholin-4-ylpyrimidin-5-yl)-2-[(3R)-3,4-dimethylpiperazin-1-yl]phenyl]-2-(trifluoromethyl)benzamide], the Kd is reported as 0.569 nM. `CC1CN(c2cc(F)c(-c3ccc(N4CCN(C)CC4)nc3)cc2NC(=O)c2cn(C)c(=O)cc2C(F)(F)F)CCN1C` (stereo in doubt) [Example 301, N-[4-fluoro-5-[6-(4-methylpiperazin-1-yl)pyridin-3-yl]-2-[(3R)-3,4-dimethylpiperazin-1-yl]phenyl]-1-methyl-6-oxo-4-(trifluoromethyl)pyridine-3-carboxamide] showed a Kd of 5.26 nM.

From patent US11319299B2, “Substituted carboxamides as inhibitors of WDR5 protein-protein binding” (PROPELLON THERAPEUTICS INC., priority 2016, dated 2022)
